Laboratory results published in US20210275521A1, “OXABICYCLOHEPTANES FOR TREATMENT OF SECONDARY ACUTE MYELOID LEUKEMIA” (Lixte Biotechnology, Inc., priority 2017, published 2021).

Tests used:
SKM-1 xenografts = assay: In vivo tumorigenicity assay, SKM-1 xenograft; set-up: species or system NOD/SCID mice; details: 2 mg/kg i.p. every other day for 14d, vs control
Description: All animal studies were performed according to the guidelines of Animal Care and Use Committee of the First Affiliated Hospital of Zhejiang University and met the NIH guidelines for the care and use of laboratory animals. And all animal studies were approved by IACUC committee of the First Affiliated Hospital of Zhejiang University. Nonobese diabetic/severe combined immunodeficiency (NOD/SCID) mice aged 6 weeks were purchased from the Shanghai Experimental Animal Center of the Chinese Academy of Sciences (Shanghai, China). SKM-1 cells (5×106 in 100 μl PBS) were injected subcutaneously into the right flank of each mouse. By 10-14d, when the tumor volumes had reached 90-110 mm3, the mice were randomly divided into four groups: DNR LB100, DNR only, LB100 only, and control. Mice were injected intraperitoneally (i.p.) with 2 mg/kg DNR and/or 2 mg/kg LB100, every other day for a total of 14d. Control mice were injected with an equal volume of PBS. Tumor size was monitored every 3d based on caliper measurements of the two perpendicular diameters; tumor volume was calculated using the formula V=(width′×length×it/6).

SKM-1 = assay: MTT cytotoxicity assay, SKM-1 (sAML cell line); assay type: cell-based, human; details: for SKM-1 cell viability: 24h incubation
Description: (§1) The following five human leukemia cell lines were obtained from the Shanghai Institute of Cell Biology (Shanghai, China): Kasumi-1, HL-60, THP-1, U937 and K562. The SICM-1 leukemia cell line was acquired from the Health Science Research Resources Bank (Osaka, Japan), established from a patient with MDS that had progressed to myelomonocytic leukemia.
(§2) Cells were seeded into 96-well microtiter plates (Nunc, Roskilde, Denmark) at densities of either 1×10^5 cells/ml (established cell lines) or 5×10^5 cells/ml (primary AML cells). […] After exposure, 20 μl of 3-(4, 5-dimethylthiazol-2-yl)-2, 5-diphenylterazolium bromide solution (MTT, Sigma-Aldrich) was added to each well. The plates were then incubated for 4 h at 37° C. The MTT-containing solution was then aspirated away, 200 μI DMSO added to each well, and absorbance at 570 nm was measured.

miR-181b-1 [1] = assay: MicroRNA microarray analysis; assay type: cell-based, human; details: SKM-1, exposure 12h
Excerpt: Total RNA was extracted from SKM-1 and LB100-treated-SKM-1 cells using the RNeasy mini kit (Qiagen, Calif., USA) according to the manufacturer's instructions. The miRNA microarray analysis was done by KangChen (Shanghai, China).

SKM-1 cells [2] = assay: Leukemia colony-forming assay; assay type: cell-based, human; details: 7 days in methylcellulose medium
Description: LB100-treated SKM-1 cells were seeded in a methylcellulose medium and incubated for 7 d at 37° C. The number of leukemia colony-forming units (CFU-Ls) containing >50 cells were determined manually under a light microscope (Olympus).

Kasumi-1 = assay: MTT cytotoxicity assay, Kasumi-1; assay type: cell-based; details: Homo sapiens; Kasumi-1, at 4 h after treatment
Description: as §1
(§3) Cells were seeded into 96-well microtiter plates (Nunc, Roskilde, Denmark) at densities of either 1×10^5 cells/ml (established cell lines) or 5×10^5 cells/ml (primary AML cells). Cultures were exposed to different drugs for 24 h. After exposure, 20 μl of 3-(4, 5-dimethylthiazol-2-yl)-2, 5-diphenylterazolium bromide solution (MTT, Sigma-Aldrich) was added to each well. The plates were then incubated for 4 h at 37° C. The MTT-containing solution was then aspirated away, 200 μI DMSO added to each well, and absorbance at 570 nm was measured.

HL-60 = assay: MTT cytotoxicity assay, HL-60; assay type: cell-based; details: Homo sapiens; HL-60, at 4 h after treatment
Description: as §1, §2

THP-1 = assay: MTT cytotoxicity assay, THP-1; assay type: cell-based; details: Homo sapiens; THP-1, at 4 h after treatment
Description: as §1, §2

Bcl-2 = assay: Immunohistochemistry staining of SKM-1 xenograft for Bcl-2; set-up: species or system NOD/SCID mice; details: in-vivo
Description: Immunohistochemical staining was performed on the paraffin-embedded sections. Tissue sections were dewaxed and rehydrated before performing antigen retrieval. Anti-BCL-2 (Cell Signaling Technology, MA, USA) were applied at 1:100 dilution in PBS to incubate slides overnight at 4° C., and incubated with an HRP-conjugated secondary antibody for 1 hat room temperature. DAB was used for color development, and dark brown staining was considered positive. All slides were photographed with optical microscopy Olympus BX51.

SKM-1 cells [3] = assay: Hoechst staining of nuclear morphology; assay type: cell-based, human; details: 24 h, varying doses
Description: SKM-1 cells were treated with LB100 for 24 h. Cells were then permeabilized with 0.5% Triton X-100 for 30 min, washed with PBS, stained with 10 μg/ml Hoechst for 30 min, and washed with PBS. Nuclear morphology was observed immediately after using a BX51 fluorescence microscope (Olympus, Tokyo, Japan).

miR-181b-1 [4] = assay: Quantitation of miR-181b-1 by real-time quantitative RT-PCR; assay type: cell-based, human; details: SKM-1, normalized to U6 RNA, vs control
Excerpt: Total miRNA was extracted from 1×10^6 SKM-1 cells using the RNAiso kit for small RNA (TaKaRa, Japan), and reverse-transcribed using the One Step PrimeScript miRNA cDNA Synthesis Kit (TaKaRa, Japan). The resulting cDNA was quantified using the iCycler Real-time PCR Detection System (BioRad, Calif., USA) and SYBR Green (Takara, Japan). The expression of miR-181b-1 was quantified relative to the expression of human U6 small nuclear RNA using the 2-°° c.′ method.

SKM-1 cells [5] = assay: Cell cycle analysis by flow cytometry; assay type: cell-based, human; details: 12 h exposure at 5 μM
Description: Cells were collected after being fixed overnight in 75% ethanol at −20° C. Fixed cells were washed twice with PBS, then incubated for 30 min with RNase A and propidium iodide (10 μg/ml). Cell cycle analysis was performed using a BDL SRII Flow Cytometer and FACSDiva Software (BD Bioscience, Franklin Lakes, USA). Raw data was analyzed using ModFit LT 3.2 software (Verity Software House, Topsham, USA).

U937 = assay: MTT cytotoxicity assay, U937; assay type: cell-based; details: Homo sapiens, U-937; U937, at 4 h after treatment
Description: as §1, §2

SKM-1 cells [6] = assay: Annexin V and propidium iodide flow-cytometry apoptosis assay; assay type: cell-based, human; details: for rate of apoptosis: LB100 10 μM 24 h
Description: Cells were seeded into 6-well plates, and treated for 24h at 37° C. with different concentrations of LB100 (0, 1.25, 2.5, 5,10 μM). After washing with PBS, aliquots of the cells were resuspended in binding buffer, and stained with 5 μl Annexin V and 5 μl propidium iodide (Biouniquer, Nanjing, China) according to the manufacturer's instructions. Fluorescence-activated cell sorting (FACS) was then performed immediately after staining.
Cells (5×10^5 cells/well) were pre-incubated for 3 h at 37° C. in the presence or absence of 20 KM of the pan-caspase inhibitor z-VAD-fmk (R&D Systems, MN, USA) in DMSO. Cells were then treated with LB100 for 24h, and processed in the Annexin V-binding assay as described above.

K562 = assay: MTT cytotoxicity assay, K562; assay type: cell-based; details: Homo sapiens; K562, at 4 h after treatment
Description: as §1, §3

SKM-1 cells [7] = assay: Western blotting of SKM-1 cells; assay type: cell-based, human
Description: Cells were washed twice in PBS and lysed in 10 mM Tris, 1 mM ethylenediaminetetra-acetic acid (EDTA), 10 mM KCl, 0.3% Triton, and 0.1 mM phenylmethanesulfonyl fluoride (PMSF). Equal amounts of protein (30-50 μg) were separated on 8-12% SDS-polyacrylamide gels, and transferred to polyvinylidene fluoride (PVDF) membranes. Membranes were blocked with 5% non-fat milk and incubated overnight with the appropriate primary antibody at manufacturer-specified dilutions. Primary monoclonal antibodies were against I3-ACTIN (Santa Cruz Biotechnology, CA, USA); CDCl25C, p-CDCl25C, CDCl2, p-CDCl2, PP2A-A, PP2A-B, PP2A-C (Epitomics, USA); AKT, p-AKT, PARP, RAS, p-MEK, p-ERK, Raf, p-CamKII, Bc.1-2 and p-Bd-2 (Cell Signaling Technology, MA, USA).
Next, the membranes were washed three times in TBS-T buffer (10 mm Tris-HCl, pH 8, 150 mm NaCl, 0.1% Tween 20), and incubated for 1 h with the corresponding horseradish peroxidase (HRP)-conjugated secondary antibody at 1:5,000 dilution. Bound secondary antibody was detected using an enhanced chemiluminescence (ECL) system (Pierce Biotechnology, IL, USA).

PP2A = biological target: T1, PP2A (Homo sapiens, UniProt P67775); assay: PP2A phosphatase activity assay in SKM-1 cells; assay type: cell-based; details: 10 μM LB100, SKM-1 cells
T1 construct: endogenous in cells; host or cells: SKM-1 cells (lysate, immunoprecipitated with Millipore kit)
Description: 1×IV SKM-1 cells were seeded into 6-well microtiter plates and treated with different concentrations of LB100 (0, 1.25, 2.5, 5, 10 μNI). […] Cell lysate was sonicated for 10 seconds and then centrifuged at 20,000 g for 15 minutes. Supernatant was then assayed with the PP2A Immunoprecipitation Phosphatase Assay Kit (Millipore, Mass., USA).

T1 sequence (P67775 whole entry): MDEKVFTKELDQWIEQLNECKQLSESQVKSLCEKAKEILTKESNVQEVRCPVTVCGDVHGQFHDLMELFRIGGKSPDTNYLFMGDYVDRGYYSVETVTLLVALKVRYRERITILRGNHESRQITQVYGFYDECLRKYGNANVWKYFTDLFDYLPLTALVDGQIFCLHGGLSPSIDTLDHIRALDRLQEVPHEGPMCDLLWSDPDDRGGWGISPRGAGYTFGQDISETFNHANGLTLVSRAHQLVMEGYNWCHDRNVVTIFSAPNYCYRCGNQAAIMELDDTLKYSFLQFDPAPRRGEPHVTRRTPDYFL
T1 sequence (P30153 2-589 partner limits assumed): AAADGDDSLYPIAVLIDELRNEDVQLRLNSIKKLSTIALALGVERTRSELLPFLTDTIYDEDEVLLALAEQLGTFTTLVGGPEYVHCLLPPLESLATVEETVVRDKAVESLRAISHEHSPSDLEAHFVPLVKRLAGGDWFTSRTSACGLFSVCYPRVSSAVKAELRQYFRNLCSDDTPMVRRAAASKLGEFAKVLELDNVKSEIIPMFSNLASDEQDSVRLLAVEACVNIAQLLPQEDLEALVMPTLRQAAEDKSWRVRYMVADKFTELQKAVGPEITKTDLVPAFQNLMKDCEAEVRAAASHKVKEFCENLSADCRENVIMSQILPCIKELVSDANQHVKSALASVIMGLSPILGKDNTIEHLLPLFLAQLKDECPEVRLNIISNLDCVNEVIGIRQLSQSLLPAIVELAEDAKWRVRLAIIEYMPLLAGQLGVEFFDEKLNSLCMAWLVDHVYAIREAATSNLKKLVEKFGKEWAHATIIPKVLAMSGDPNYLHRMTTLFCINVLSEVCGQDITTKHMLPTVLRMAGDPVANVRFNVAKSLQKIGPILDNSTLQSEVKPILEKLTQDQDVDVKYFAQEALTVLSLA

With `COc1cccc2c1C(=O)c1c(O)c3c(c(O)c1C2=O)C[C@@](O)(C(C)=O)C[C@@H]3O[C@H]1C[C@H](N)[C@H](O)[C@H](C)O1` [DNR, Daunorubicin, reference compound] the tumor volume (SKM-1 xenografts) was “sharp decrease” and the SKM-1 cell viability (SKM-1) was “significantly diminished in a dose-dependent manner”.

With `CN1CCN(C(=O)C2C(C(=O)O)[C@H]3CC[C@@H]2O3)CC1` (stereo partly drawn) [LB100] the “miR-181b-1 in microRNA profiling” value (miR-181b-1 [1]) was “significantly up-regulated”, the “growth of SKM-1 cells, colony formation” value (SKM-1 cells [2]) was “dose-dependent inhibitory activity” and the IC50 (Kasumi-1) was 4.38 µM. The IC50 (HL-60) was 3.36 µM, the IC50 (THP-1) was 13.5 µM and the tumor volume (SKM-1 xenografts) was “sharp decrease”. For the same compound, the “Bcl-2 expression, immunohistochemistry” value (Bcl-2) was “markedly downregulated”, the “nuclear morphology after Hoechst staining” value (SKM-1 cells [3]) was “increased amounts of condensed, pyknotic nudei” and the “relative expression of miR-181b-1, increase” value (miR-181b-1 [4]) was “about 2 fold”. It also gave a G2/M phase cells (SKM-1 cells [5]; SKM-1 (13.4% before)) of 31.5%, a G0/G1 phase cells (SKM-1 cells [5]; SKM-1 (36.7% before)) of 9.8% and an IC50 (U937) of 3.44 µM. For the same compound, the “fraction of apoptotic sAML cells” value (SKM-1 cells [6]; 1.25 μM, 24h (3.13% in the absence of LB100)) was 8.51%, the “fraction of apoptotic sAML cells” value (SKM-1 cells [6]; 2.5 μM, 24h) was 13.61% and the “fraction of apoptotic sAML cells” value (SKM-1 cells [6]; 5 μM, 24h) was 37%. For the same compound, the “fraction of apoptotic sAML cells” value (SKM-1 cells [6]; 10 μM, 24h) was 65.27%, the rate of apoptosis (SKM-1 cells [6]; absence of z-VAD-FMK) was 62% and the rate of apoptosis (SKM-1 cells [6]; presence of pan-caspase inhibitor z-VAD-FMK) was 16%. For the same compound, the IC50 (K562) was 7 µM, the SKM-1 cell viability (SKM-1) was “significantly diminished in a dose-dependent manner” and the IC50 (SKM-1; Homo sapiens, SKM-1, at 4 h after treatment) was 5.35 µM. The “CDCl2 and CDCl25C total- and phosphorylated-protein levels” value (SKM-1 cells [7]; 5 μM LB100, SKM-1) was “markedly downregulated”, the “phosphorylated Bcl-2 and CamKII” value (SKM-1 cells [7]; after LB100 administration) was “increased” and the “caspase-3 and PARP cleavage” value (SKM-1 cells [7]; immunoblotting, 24h exposure, SKM-1) was “cleavage in a concentration-dependent manner”. For the same compound, the “Bcl-2 expression, immunoblot” value (SKM-1 cells [7]; in-vitro, SKM-1, 5 μM LB100) was “markedly downregulated”, the “expression of the three PP2A subunits (PP2A-A, PP2A-B, PP2A-C)” value (SKM-1 cells [7]; western blot, 5 μM LB100 for 12 h) was “moderately decreased” and the “levels of p-AKT” value (SKM-1 cells [7]; western blot, sAML cells) was “increased”. For the same compound, the “reduction of the activity of PP2A” value (PP2A) was “up to 60%”.
